{"source": "the supplement of paper PMC10307832", "experiment_in_all_cases": "relative viability (nuclei count vs DMSO), 5 days (fraction); higher = more cells survive", "key": {"NCI-H1651": {"tested_on": "NCI-H1651", "how_it_was_run": "(§1)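 Five library-drug doses in √10 steps were combined with a fixed anchor-drug dose, or a single drug was given alone, by pin tool to lung cancer cell lines in 1536-well plates the day after seeding. Nuclei were stained and counted after 5 days. Relative viability is the nuclei count in treated wells over that in vehicle wells, taken as the median of duplicate plates.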"}, "RERF-LC-KJ": {"tested_on": "RERF-LC-KJ", "how_it_was_run": "as §1"}, "NCI-H1703": {"tested_on": "NCI-H1703", "how_it_was_run": "as §1"}, "PC-3 [JPC-3]": {"tested_on": "PC-3 [JPC-3]", "how_it_was_run": "as §1"}, "NCI-H838": {"tested_on": "NCI-H838", "how_it_was_run": "as §1"}, "NCI-H650": {"tested_on": "NCI-H650", "how_it_was_run": "as §1"}, "NCI-H1944": {"tested_on": "NCI-H1944", "how_it_was_run": "as §1"}, "NCI-H1648": {"tested_on": "NCI-H1648", "how_it_was_run": "as §1"}, "IA-LM": {"tested_on": "IA-LM", "how_it_was_run": "as §1"}, "NCI-H520": {"tested_on": "NCI-H520", "how_it_was_run": "as §1"}}, "data": [{"compound": "CC(=O)O[C@@]12CO[C@@H]1C[C@H](O)[C@@]1(C)C(=O)[C@H](O)C3=C(C)[C@@H](OC(=O)[C@H](O)[C@@H](NC(=O)OC(C)(C)C)c4ccccc4)C[C@@](O)([C@@H](OC(=O)c4ccccc4)[C@H]21)C3(C)C", "note": "[Docetaxel] + NC(=O)Nc1cc(-c2cccc(F)c2)sc1C(=O)N[C@H]1CCCNC1 [AZD7762] (partner 0.2 µM)", "values": [{"measurement": "relative viability", "setting": "NCI-H1651; first compound 0.0002 µM", "result": 0.345}, {"measurement": "relative viability", "setting": "NCI-H1651; first compound 0.000632 µM", "result": 0.507}, {"measurement": "relative viability", "setting": "NCI-H1651; first compound 0.002 µM", "result": 0.394}, {"measurement": "relative viability", "setting": "NCI-H1651; first compound 0.006325 µM", "result": 0.13}, {"measurement": "relative viability", "setting": "RERF-LC-KJ; first compound 0.0002 µM", "result": 0.5}, {"measurement": "relative viability", "setting": "RERF-LC-KJ; first compound 0.000632 µM", "result": 1.01}, {"measurement": "relative viability", "setting": "RERF-LC-KJ; first compound 0.002 µM", "result": 0.363}, {"measurement": "relative viability", "setting": "RERF-LC-KJ; first compound 0.006325 µM", "result": 0.196}, {"measurement": "relative viability", "setting": "RERF-LC-KJ; first compound 0.02 µM", "result": 0.128}, {"measurement": "relative viability", "setting": "NCI-H1703; first compound 0.000632 µM", "result": 0.121}, {"measurement": "relative viability", "setting": "NCI-H1703; first compound 0.002 µM", "result": 0.107}, {"measurement": "relative viability", "setting": "NCI-H1703; first compound 0.006325 µM", "result": 0.114}, {"measurement": "relative viability", "setting": "NCI-H1703; first compound 0.02 µM", "result": 0.0729}, {"measurement": "relative viability", "setting": "PC-3 [JPC-3]; first compound 0.0002 µM", "result": 0.761}, {"measurement": "relative viability", "setting": "PC-3 [JPC-3]; first compound 0.000632 µM", "result": 0.69}, {"measurement": "relative viability", "setting": "PC-3 [JPC-3]; first compound 0.002 µM", "result": 0.441}, {"measurement": "relative viability", "setting": "PC-3 [JPC-3]; first compound 0.006325 µM", "result": 0.267}, {"measurement": "relative viability", "setting": "PC-3 [JPC-3]; first compound 0.02 µM", "result": 0.169}, {"measurement": "relative viability", "setting": "NCI-H838; first compound 0.0002 µM", "result": 0.955}, {"measurement": "relative viability", "setting": "NCI-H838; first compound 0.000632 µM", "result": 0.915}, {"measurement": "relative viability", "setting": "NCI-H838; first compound 0.002 µM", "result": 0.639}, {"measurement": "relative viability", "setting": "NCI-H838; first compound 0.006325 µM", "result": 0.606}, {"measurement": "relative viability", "setting": "NCI-H838; first compound 0.02 µM", "result": 0.574}, {"measurement": "relative viability", "setting": "NCI-H650; first compound 0.0002 µM", "result": 0.946}, {"measurement": "relative viability", "setting": "NCI-H650; first compound 0.000632 µM", "result": 0.485}, {"measurement": "relative viability", "setting": "NCI-H650; first compound 0.002 µM", "result": 0.363}, {"measurement": "relative viability", "setting": "NCI-H650; first compound 0.006325 µM", "result": 0.28}, {"measurement": "relative viability", "setting": "NCI-H650; first compound 0.02 µM", "result": 0.239}, {"measurement": "relative viability", "setting": "NCI-H1944; first compound 0.0002 µM", "result": 0.667}, {"measurement": "relative viability", "setting": "NCI-H1944; first compound 0.000632 µM", "result": 0.476}, {"measurement": "relative viability", "setting": "NCI-H1944; first compound 0.002 µM", "result": 0.339}, {"measurement": "relative viability", "setting": "NCI-H1944; first compound 0.006325 µM", "result": 0.25}, {"measurement": "relative viability", "setting": "NCI-H1944; first compound 0.02 µM", "result": 0.102}, {"measurement": "relative viability", "setting": "NCI-H1648; first compound 0.0002 µM", "result": 0.589}, {"measurement": "relative viability", "setting": "NCI-H1648; first compound 0.000632 µM", "result": 0.701}, {"measurement": "relative viability", "setting": "NCI-H1648; first compound 0.002 µM", "result": 0.431}, {"measurement": "relative viability", "setting": "NCI-H1648; first compound 0.006325 µM", "result": 0.248}, {"measurement": "relative viability", "setting": "NCI-H1648; first compound 0.02 µM", "result": 0.217}]}, {"compound": "CC(=O)O[C@@]12CO[C@@H]1C[C@H](O)[C@@]1(C)C(=O)[C@H](O)C3=C(C)[C@@H](OC(=O)[C@H](O)[C@@H](NC(=O)OC(C)(C)C)c4ccccc4)C[C@@](O)([C@@H](OC(=O)c4ccccc4)[C@H]21)C3(C)C", "note": "[Docetaxel] + O=C(CCCCCCC(=O)Nc1ccccc1)NO [Vorinostat] (partner 1 µM)", "values": [{"measurement": "relative viability", "setting": "IA-LM; first compound 0.0002 µM", "result": 0.723}, {"measurement": "relative viability", "setting": "IA-LM; first compound 0.000632 µM", "result": 0.328}, {"measurement": "relative viability", "setting": "IA-LM; first compound 0.002 µM", "result": 0.145}, {"measurement": "relative viability", "setting": "IA-LM; first compound 0.006325 µM", "result": 0.0958}, {"measurement": "relative viability", "setting": "IA-LM; first compound 0.02 µM", "result": 0.0566}, {"measurement": "relative viability", "setting": "NCI-H1651; first compound 0.0002 µM", "result": 0.41}, {"measurement": "relative viability", "setting": "NCI-H1651; first compound 0.000632 µM", "result": 0.582}, {"measurement": "relative viability", "setting": "NCI-H1651; first compound 0.002 µM", "result": 0.463}, {"measurement": "relative viability", "setting": "NCI-H1651; first compound 0.006325 µM", "result": 0.159}, {"measurement": "relative viability", "setting": "RERF-LC-KJ; first compound 0.0002 µM", "result": 0.591}, {"measurement": "relative viability", "setting": "RERF-LC-KJ; first compound 0.000632 µM", "result": 0.628}, {"measurement": "relative viability", "setting": "RERF-LC-KJ; first compound 0.002 µM", "result": 0.368}, {"measurement": "relative viability", "setting": "RERF-LC-KJ; first compound 0.006325 µM", "result": 0.189}, {"measurement": "relative viability", "setting": "RERF-LC-KJ; first compound 0.02 µM", "result": 0.151}, {"measurement": "relative viability", "setting": "PC-3 [JPC-3]; first compound 0.0002 µM", "result": 0.673}, {"measurement": "relative viability", "setting": "PC-3 [JPC-3]; first compound 0.000632 µM", "result": 0.58}, {"measurement": "relative viability", "setting": "PC-3 [JPC-3]; first compound 0.002 µM", "result": 0.395}, {"measurement": "relative viability", "setting": "PC-3 [JPC-3]; first compound 0.006325 µM", "result": 0.343}, {"measurement": "relative viability", "setting": "PC-3 [JPC-3]; first compound 0.02 µM", "result": 0.21}, {"measurement": "relative viability", "setting": "NCI-H838; first compound 0.0002 µM", "result": 0.623}, {"measurement": "relative viability", "setting": "NCI-H838; first compound 0.000632 µM", "result": 0.385}, {"measurement": "relative viability", "setting": "NCI-H838; first compound 0.002 µM", "result": 0.328}, {"measurement": "relative viability", "setting": "NCI-H838; first compound 0.006325 µM", "result": 0.208}, {"measurement": "relative viability", "setting": "NCI-H838; first compound 0.02 µM", "result": 0.16}, {"measurement": "relative viability", "setting": "NCI-H650; first compound 0.0002 µM", "result": 0.389}, {"measurement": "relative viability", "setting": "NCI-H650; first compound 0.000632 µM", "result": 0.326}, {"measurement": "relative viability", "setting": "NCI-H650; first compound 0.002 µM", "result": 0.262}, {"measurement": "relative viability", "setting": "NCI-H650; first compound 0.006325 µM", "result": 0.2}, {"measurement": "relative viability", "setting": "NCI-H650; first compound 0.02 µM", "result": 0.171}, {"measurement": "relative viability", "setting": "NCI-H1944; first compound 0.0002 µM", "result": 0.604}, {"measurement": "relative viability", "setting": "NCI-H1944; first compound 0.000632 µM", "result": 0.538}, {"measurement": "relative viability", "setting": "NCI-H1944; first compound 0.002 µM", "result": 0.423}, {"measurement": "relative viability", "setting": "NCI-H1944; first compound 0.006325 µM", "result": 0.223}, {"measurement": "relative viability", "setting": "NCI-H1944; first compound 0.02 µM", "result": 0.172}, {"measurement": "relative viability", "setting": "NCI-H520; first compound 0.0002 µM", "result": 0.714}, {"measurement": "relative viability", "setting": "NCI-H520; first compound 0.000632 µM", "result": 0.463}, {"measurement": "relative viability", "setting": "NCI-H520; first compound 0.002 µM", "result": 0.281}, {"measurement": "relative viability", "setting": "NCI-H520; first compound 0.006325 µM", "result": 0.187}, {"measurement": "relative viability", "setting": "NCI-H520; first compound 0.02 µM", "result": 0.158}, {"measurement": "relative viability", "setting": "NCI-H1648; first compound 0.0002 µM", "result": 0.487}, {"measurement": "relative viability", "setting": "NCI-H1648; first compound 0.000632 µM", "result": 0.378}, {"measurement": "relative viability", "setting": "NCI-H1648; first compound 0.002 µM", "result": 0.255}, {"measurement": "relative viability", "setting": "NCI-H1648; first compound 0.006325 µM", "result": 0.301}, {"measurement": "relative viability", "setting": "NCI-H1648; first compound 0.02 µM", "result": 0.155}]}]}
